Biological target: CFTR-mediated chloride transport (Homo sapiens, UniProt P13569)
Type: cell-based
Conditions: enteroid cells incubated with test compound 18-24 hours, acute 10 μM forskolin and 300 nM Compound III; for Max. Activity: % of chloride transport with 3 μM Compound A, 3 μM Compound II and 300 nM acute Compound III triple combination control
Procedure: Base medium (ADF+++) consisted of Advanced DMEM/Ham's F12, 2 mM Glutamax, 10 mM HEPES, […] penicillin/streptomycin.
Intestinal enteroid maintenance medium (IEMM) consisted of ADF+++, 1× B27 supplement, 1× N2 supplement, 1.25 mM N-acetyl cysteine, 10 mM Nicotinamide, 50 ng/mL hEGF, 10 nM Gastrin, 1 μg/mL hR-spondin-1, 100 ng/mL hNoggin, TGF-b type 1 inhibitor A-83-01, 100 μg/mL Primocin, 10 μM P38 MAPK inhibitor SB202190.
Bath 1 Buffer consisted of 1 mM MgCl2, 160 mM NaCl, 4.5 mM KCl, 10 mM HEPES, 10 mM Glucose, 2 mM CaCl2).
Chloride Free Buffer consisted of 1 mM Magnesium Gluconate, 2 mM Calcium Gluconate, 4.5 mM Potassium Gluconate, 160 mM Sodium Gluconate, 10 mM HEPES, 10 mM Glucose.
Bath1 Dye Solution consisted of Bath 1 Buffer, 0.04% Pluronic F127, 20 μM Methyl Oxonol, 30 μM CaCCinh-A01, 30 μM Chicago Sky Blue.
Chloride Free Dye Solution consisted of Chloride Free Buffer, 0.04% Pluronic F127, 20 μM Methyl Oxonol, 30 μM CaCCinh-A01, 30 μM Chicago Sky Blue.
Chloride Free Dye Stimulation Solution consisted of Chloride Free Dye Solution, 10 μM forskolin, 100 μM IBMX, and 300 nM Compound III.
Human intestinal epithelial enteroid cells were obtained from the Hubrecht Institute for Developmental Biology and Stem Cell Research, Utrecht, The Netherlands and expanded in T-Flasks as previously described (Dekkers J F, Wiegerinck C L, de Jonge H R, Bronsveld I, Janssens H M, de Winter-de Groot K M, Brandsma A M, de Jong N W M, Bijvelds M J C, Scholte B J, Nieuwenhuis E E S, van den Brink S, Clevers H, van der Ent C K, Middendorp S and M Beekman J M. A functional CFTR assay using primary cystic fibrosis intestinal organoids. Nat Med. 2013 July; 19(7):939-45).
Cells were recovered in cell recovery solution, collected by centrifugation at 650 rpm for 5 min at 4° C., resuspended in TryPLE and incubated for 5 min at 37° C. Cells were then collected by centrifugation at 650 rpm for 5 min at 4° C. and resuspended in IEMM containing 10 μM ROCK inhibitor (RI) (trans-4-[(1R)-1-aminoethyl]-N-4-pyridinylcyclohexanecarboxamide). The cell suspension was passed through a 40 μm cell strainer and resuspended at 1×10^6 cells/mL in IEMM containing 10 μM RI. Cells were seeded at 5000 cells/well into multi-well plates and incubated for overnight at 37° C., 95% humidity and 5% CO2 prior to assay.
Enteroid cells were incubated with test compound in IEMM for 18-24 hours at 37° C., 95% humidity and 5% CO2. Following compound incubations, a membrane potential dye assay was employed using a FLIPR Tetra to directly measure the potency and efficacy of the test compound on CFTR-mediated chloride transport following acute addition of 10 μM forskolin and 300 nM Compound III. Briefly, cells were washed 5 times in Bath 1 Buffer. Bath 1 Dye Solution was added and the cells were incubated for 25 min at room temperature. Following dye incubation, cells were washed 3 times in Chloride Free Dye Solution. Chloride transport was initiated by addition of Chloride Free Dye Stimulation Solution and the fluorescence signal was read for 15 min. The CFTR-mediated chloride transport for each condition was determined from the AUC of the fluorescence response to acute forskolin and 300 nM Compound III stimulation. Chloride transport was then expressed as a percentage of the chloride transport following treatment with 3 μM Compound A, 3 μM Compound II and 300 nM acute Compound III triple combination control (% Activity).

Chain of CFTR-mediated chloride transport (P13569 whole entry, looked up): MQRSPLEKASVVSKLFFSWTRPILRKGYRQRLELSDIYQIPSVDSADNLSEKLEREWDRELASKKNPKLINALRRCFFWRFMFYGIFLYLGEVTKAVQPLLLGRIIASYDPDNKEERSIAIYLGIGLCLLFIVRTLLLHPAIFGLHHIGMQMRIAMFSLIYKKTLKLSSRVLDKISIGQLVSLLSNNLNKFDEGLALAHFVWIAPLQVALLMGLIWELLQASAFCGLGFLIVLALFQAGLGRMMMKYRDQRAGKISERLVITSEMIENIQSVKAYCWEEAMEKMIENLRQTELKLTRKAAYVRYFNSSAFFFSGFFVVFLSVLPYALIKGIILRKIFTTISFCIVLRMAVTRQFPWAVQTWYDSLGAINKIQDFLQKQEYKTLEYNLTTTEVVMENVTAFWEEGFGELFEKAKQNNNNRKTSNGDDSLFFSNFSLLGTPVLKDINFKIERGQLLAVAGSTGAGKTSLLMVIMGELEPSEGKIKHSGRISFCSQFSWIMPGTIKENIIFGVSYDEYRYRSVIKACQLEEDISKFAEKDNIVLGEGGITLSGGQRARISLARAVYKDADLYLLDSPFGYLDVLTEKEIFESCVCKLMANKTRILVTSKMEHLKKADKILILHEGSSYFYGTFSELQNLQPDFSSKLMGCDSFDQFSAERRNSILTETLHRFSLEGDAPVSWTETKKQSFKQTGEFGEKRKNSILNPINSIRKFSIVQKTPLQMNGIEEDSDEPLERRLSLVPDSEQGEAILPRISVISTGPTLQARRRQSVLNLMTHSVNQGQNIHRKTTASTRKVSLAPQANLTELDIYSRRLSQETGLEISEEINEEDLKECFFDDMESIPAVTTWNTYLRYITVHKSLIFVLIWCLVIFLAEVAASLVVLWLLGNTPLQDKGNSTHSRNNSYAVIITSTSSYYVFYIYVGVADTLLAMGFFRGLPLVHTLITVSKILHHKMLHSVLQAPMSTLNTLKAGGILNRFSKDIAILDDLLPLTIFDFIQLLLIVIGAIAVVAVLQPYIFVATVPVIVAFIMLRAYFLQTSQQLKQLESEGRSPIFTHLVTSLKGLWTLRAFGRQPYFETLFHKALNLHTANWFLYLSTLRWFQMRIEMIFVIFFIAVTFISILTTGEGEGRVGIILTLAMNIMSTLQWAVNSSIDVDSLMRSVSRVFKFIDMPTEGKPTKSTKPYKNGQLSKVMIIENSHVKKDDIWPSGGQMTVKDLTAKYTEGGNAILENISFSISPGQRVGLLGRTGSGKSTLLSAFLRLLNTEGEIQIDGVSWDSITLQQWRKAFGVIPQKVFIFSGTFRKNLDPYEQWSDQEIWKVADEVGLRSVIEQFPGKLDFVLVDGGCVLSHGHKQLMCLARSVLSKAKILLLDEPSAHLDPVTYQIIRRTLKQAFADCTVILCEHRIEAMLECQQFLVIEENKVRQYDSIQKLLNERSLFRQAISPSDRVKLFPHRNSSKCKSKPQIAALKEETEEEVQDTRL

SMILES	EC50 [nM]	Max. Activity
CC1(C)C[C@@H]2CCCNc3cccc(n3)S(=O)(=O)NC(=O)c3ccc(N4CC[C@H](OCCCC5(C(F)(F)F)CC5)C4=O)nc3N1C2 (single isomer, unassigned) [Compound 243]	< 1000	+++ (+++ is >60%)
CC1(C)C[C@H]2CCCCNc3cccc(n3)S(=O)(=O)NC(=O)c3ccc(-n4cc(OCCC5(C(F)(F)F)CC5)cn4)nc3N1C2 (single isomer, unassigned) [Compound 83, 12,12-dimethyl-8-(4-{2-[1-(trifluoromethyl)cyclopropyl]ethoxy}-1H-pyrazol-1-yl)-2λ^6-thia-3,9,11,19,24-pentaazatetracyclo[18.3.1.111,14.05,10]pentacosa-1(23),5,7,9,20(24),21-hexaene-2,2,4-trione]	< 1000	++ (++ is 30-60%)
CN1CCC[C@H]2CN(c3nc(-n4ccc(OCCC5(C(F)(F)F)CC5)n4)ccc3C(=O)NS(=O)(=O)c3cccc1n3)C(C)(C)C2 (single isomer, unassigned) [Compound 139, 12,12,18-trimethyl-8-(3-{2-[1-(trifluoromethyl)cyclopropyl]ethoxy}-1H-pyrazol-1-yl)-2λ^6-thia-3,9,11,18,23-pentaazatetracyclo[17.3.1.111,14.05,10]tetracosa-1(23),5(10),6,8,19,21-hexaene-2,2,4-trione]	< 1000	+++ (+++ is >60%)
CC1(C)CC[C@H]2CCCNc3cccc(n3)S(=O)(=O)NC(=O)c3ccc(-n4ccc(OCCC(C5CC5)C5CC5)n4)nc3N21 (single isomer, unassigned) [Compound 137, 8-[3-(3,3-Dicyclopropylpropoxy)-1H-pyrazol-1-yl]-12,12-dimethyl-2λ^6-thia-3,9,11,19,24-pentaazatetracyclo[18.3.1.05,10.011,15]tetracosa-1(23),5(10),6,8,20(24),21-hexaene-2,2,4-trione]	> 3000	+ (+ is <30%)
CC1(C)C[C@@H]2CCCNc3cccc(n3)S(=O)(=O)NC(=O)c3ccc(N4CC[C@H](OCCCC5(C(F)(F)F)CC5)C4=O)nc3N1C2 (single isomer, unassigned) [Compound 242]	< 1000	++ (++ is 30-60%)
CN1CCCCC2CN(c3nc(-n4ccc(OCCC5(C(F)(F)F)CC5)n4)ccc3C(=O)NS(=O)(=O)c3ccc1nc3)C(C)(C)C2 (centres unmarked) [Compound 132, 12,12,19-trimethyl-8-(3-{2-[1-(trifluoromethyl)cyclopropyl]ethoxy}-1H-pyrazol-1-yl)-2λ^6-thia-3,9,11,19,21-pentaazatetracyclo[18.2.2.111,14.05,10]pentacosa-1(23),5,7,9,20(24),21-hexaene-2,2,4-trione]	< 1000	++ (++ is 30-60%)
CC1(C)CC2CCCNc3cccc(n3)S(=O)(=O)NC(=O)c3ccc(-n4ccc(OCC5C(C)(C)C5(C)C)n4)nc3N1C2 (centres unmarked) [Compound 42, 12,12-dimethyl-8-{3-[(2,2,3,3-tetramethylcyclopropyl)methoxy]-1H-pyrazol-1-yl}-2λ^6-thia-3,9,11,18,23-pentaazatetracyclo[17.3.1.111,14.05,10]tetracosa-1(22),5,7,9,19(23),20-hexaene-2,2,4-trione]	< 1000	+++ (+++ is >60%)
CC(C)(C)CCCO[C@H]1CCN(c2ccc3c(n2)N2C[C@@H](CCCNc4cccc(n4)S(=O)(=O)NC3=O)CC2(C)C)C1=O (single isomer, unassigned) [Compound 246]	< 1000	++ (++ is 30-60%)
CC1(C)C[C@H]2CCNc3cccc(n3)S(=O)(=O)NC(=O)c3ccc(-n4ccc(OCCC(C5CC5)C5CC5)n4)nc3N1C2 (single isomer, unassigned) [Compound 251, 11-[3-(3,3-dicyclopropylpropoxy)-1H-pyrazol-1-yl]-7,7-dimethyl-17λ^6-thia-2,8,10,16,22-pentaazatetracyclo[16.3.1.15,8.09,14]tricosa-1(22),9,11,13,18,20-hexaene-15,17,17-trione]	< 1000	++ (++ is 30-60%)
CC(C)C(COc1ccn(-c2ccc3c(n2)N2C[C@@H](CC2(C)C)OCCNc2cccc(n2)S(=O)(=O)NC3=O)n1)C(C)C (single isomer, unassigned) [Compound 248, 12,12-dimethyl-8-{3-[3-methyl-2-(propan-2-yl)butoxy]-1H-pyrazol-1-yl}-15-oxa-2λ^6-thia-3,9,11,18,23-pentaazatetracyclo[17.3.1.111,14.05,10]tetracosa-1(23),5(10),6,8,19,21-hexaene-2,2,4-trione]	< 1000	++ (++ is 30-60%)
CC(C)(C)CC[C@H]1CCN(c2ccc3c(n2)N2C[C@@H](CCCNc4cccc(n4)S(=O)(=O)NC3=O)CC2(C)C)C1=O (single isomer, unassigned) [Compound 127]	< 1000	+++ (+++ is >60%)
CC1(C)CC2CCCNc3cccc(n3)S(=O)(=O)NC(=O)c3ccc(-n4ccc(OCC5C6(CC6)C56CC6)n4)nc3N1C2 (racemic) [Compound 105, 8-[3-({dispiro[2.0.2.1]heptan-7-yl}methoxy)-1H-pyrazol-1-yl]-12,12-dimethyl-2λ^6-thia-3,9,11,18,23-pentaazatetracyclo[17.3.1.111,14.05,10]tetracosa-1(22),5,7,9,19(23),20-hexaene-2,2,4-trione]	< 1000	+++ (+++ is >60%)
CC1(C)C[C@H]2CCCn3cc(cn3)S(=O)(=O)NC(=O)c3ccc(-n4ccc(OCCC5(C(F)(F)F)CC5)n4)nc3N1C2 (single isomer, unassigned) [Compound 119, 20,20-dimethyl-4-(3-{2-[1-(trifluoromethyl)cyclopropyl]ethoxy}-1H-pyrazol-1-yl)-10λ^6-thia-1,3,9,13,14-pentaazatetracyclo[16.2.1.111,14.02,7]docosa-2,4,6,11(22),12-pentaene-8,10,10-trione]	< 1000	+++ (+++ is >60%)
[2H]c1ccc2nc1NCCC[C@@H]1CN(c3nc(-n4ccc(OCCC5C6(CC6)C56CC6)n4)ccc3C(=O)NS2(=O)=O)C(C)(C)C1 [Compound 300, (14S)-8-[3-(2-{dispiro[2.0.2.1]heptan-7-yl}ethoxy)-1H-pyrazol-1-yl]-12,12-dimethyl(20-deuterio)-2λ^6-thia-3,9,11,18,23-pentaazatetracyclo[17.3.1.111,14.05,10]tetracosa-1(23),5,7,9,19,21-hexaene-2,2,4-trione]	< 1000	+++ (+++ is >60%)
CC1(C)C[C@H]2CCCn3ccc(n3)S(=O)(=O)NC(=O)c3ccc(N4CC[C@H](CCCC5(C(F)(F)F)CC5)C4=O)nc3N1C2 (single isomer, unassigned) [Compound 182, 20,20-dimethyl-4-(2-oxo-3-{3-[1-(trifluoromethyl)cyclopropyl]propyl}pyrrolidin-1-yl)-10λ^6-thia-1,3,9,14,22-pentaazatetracyclo[16.2.1.111,14.02,7]docosa-2,4,6,11(22),12-pentaene-8,10,10-trione]	< 1000	++ (++ is 30-60%)
CC(C)(C)CCO[C@H]1CCN(c2ccc3c(n2)N2C[C@@H](CCCNc4cccc(n4)S(=O)(=O)NC3=O)CC2(C)C)C1=O (single isomer, unassigned) [Compound 170]	< 1000	++ (++ is 30-60%)

— patent US11866450B2, “Modulators of Cystic Fibrosis Transmembrane Conductance regulator, pharmaceutical compositions, methods of treatment, and process for making the modulators” (priority 2018, dated 2024)
